# Measured values reported in patent US6943190B2, “Method of using pyruvate and/or its derivatives for the treatment of cytokine-mediated inflammatory conditions” (University of Pittsburgh-of the Commonwealth System of …, priority 2001, dated 2005).
# Key:
# IL-1 = assay: Peak serum IL-1 in endotoxemic mice (ELISA); type: in vivo, Balb/C mice; conditions: pretreatment, data not shown
# Procedure: Endotoxin shock. Mice were injected with endotoxin (Escherichia coli lipopolysaccharide, LPS 0111:B4; Sigma Chemical Co, St. Louis, Mo.) that was dissolved in sterile pyrogen-free saline at stock concentrations of 10 mg/ml. LPS solutions were sonicated for 20 min immediately prior to use for each experiment. Mice received an LD75 dose of LPS (5 mg/kg, i.p.). Blood was collected at different times after LPS administration, allowed to clot for 2 h at room temperature, then centrifuged for 20 min at 1,500 g. Serum samples were stored at […] prior to analysis. Mortality was recorded for up to 3 weeks after injection to ensure that no additional late deaths occurred.
# Cytokine measurements. TNF concentration in mouse serum and in conditioned media from RAW 264.7 cell cultures was measured by ELISA (minimum detectable concentration=10 pg/ml). […] Mouse serum IL-6 and IL-1β levels were measured using ELISA kits (R&D Systems, Inc., Minneapolis, Minn.). HMGB-1 was analyzed by western blot as previously described by Wang et al, 1999. […] Protein was electroblotting to Immun-blot PVDF membrane (Bio-rad, Hercules Calif.) and HMGB-1 was analyzed using polyclonal 241 antibody and secondary anti-rabbit horseradish peroxidase (Amersham, Pitscataway, N.J.). Standard curves were constructed using r-HMGB-1, and the intensity of the 30 kD band analyzed by densitometry. […]
# NF-B = assay: LPS-induced NF-kB activation in RAW264.7 cells (EMSA); type: cell-based, murine; conditions: EMSA at 15 minutes and 4 hours after LPS
# Procedure: Cell Culture. BALB/c murine macrophage-like RAW 264.7 cells obtained from the American Type Culture Collection (ATCC Number TIB-71, ATCC, Rockville, Mass.) (61), were cultured in RPMI 1640 (Life Technologies, Grand Island, N.Y.) supplemented with 10% heat inactivated fetal bovine serum (Gemini, Calabasas, Calif.), 2 mM glutamine (Cat. # 25030-149, Gibco BRL, Rockville, Mass.) and antibiotic-antimycotic mix (Cat. # 15240-062, Gibco BRL, Rockville, Mass.) in a humidified incubator with 5% CO2. Cells were mechanically removed and resuspended in serum-free Opti-MEM I medium (Life Technology, Grand Island, N.Y.) to perform experiments at 75% confluence.
# Nuclear extract preparation. The day before use, cells were plated at a density of 1×10^6 per well in 6 well tissue culture plates. After stimulation at indicated times, cells were removed from the incubator and place on ice immediately. Cells were washed once with 2 ml phosphate buffered saline (PBS) then harvested in 1 ml of PBS containing 2% FBS using rubber scrapper. […] The supernatant was transferred to a new tube, protein concentration was determined using a commercially available Bradford assay (Bio-Rad Protein Assay, Hercules, Calif.). […]
smiles,measurement,setting,value
CCOC(=O)C(C)=O [ethyl pyruvate],peak serum level of IL-1,IL-1,attenuated
same,LPS-induced activation of NF-B,NF-B,significantly prevented LPS-induced activation of NF-B signaling in a concentration dependent fashion
